Assay results reported in ChEMBL document CHEMBL4190169 (Medchemcomm, 2016).

Tests used:
[1] = molecular target: T1, Prostaglandin G/H synthase 1 (Ovis aries, UniProt P05979); test: Inhibition of ovine COX1 using arachidonic acid as substrate incubated for 5 mins followed by substrate addition measured after 2 mins by enzyme immunoassay
T1 sequence (P05979 whole entry): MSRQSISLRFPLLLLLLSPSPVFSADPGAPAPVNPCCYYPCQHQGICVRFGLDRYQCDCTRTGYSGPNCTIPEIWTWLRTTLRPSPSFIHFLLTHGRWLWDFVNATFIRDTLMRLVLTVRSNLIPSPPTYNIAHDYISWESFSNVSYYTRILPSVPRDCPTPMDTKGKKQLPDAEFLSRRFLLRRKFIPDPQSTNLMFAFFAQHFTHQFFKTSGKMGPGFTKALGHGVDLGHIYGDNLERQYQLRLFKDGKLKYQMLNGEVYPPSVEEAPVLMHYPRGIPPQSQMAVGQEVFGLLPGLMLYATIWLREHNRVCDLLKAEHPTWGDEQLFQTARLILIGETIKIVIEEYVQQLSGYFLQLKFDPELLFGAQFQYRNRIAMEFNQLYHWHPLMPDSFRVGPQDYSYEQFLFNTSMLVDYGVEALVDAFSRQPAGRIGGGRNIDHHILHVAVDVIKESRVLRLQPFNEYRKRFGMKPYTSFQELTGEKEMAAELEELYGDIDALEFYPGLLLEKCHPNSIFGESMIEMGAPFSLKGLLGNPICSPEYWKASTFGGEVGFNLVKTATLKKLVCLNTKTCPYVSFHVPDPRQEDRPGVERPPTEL

Rattus norvegicus [2] = test: Ulcerogenic activity in Wistar rat assessed as appearance of ulcers and erosions in stomach by measuring ulcer index at 100 mg/kg, po measured after 4 hrs; type: toxicity, organism-based; settings: in vivo
Rattus norvegicus [3] = test: Antiinflammatory activity in gamma-irradiated carrageenan-induced Wistar rat paw edema model assessed as paw oedema at 100 mg/kg, ip administered 1 hr prior to carrageenan challenge measured after 3 hrs (reference value: 89.5 +/- 1.47%); type: functional
Rattus norvegicus [4] = test: Analgesic activity in gamma-irradiated carrageenan-induced Wistar rat hyperalgesia model assessed as nociceptive threshold at 100 mg/kg, ip administered 1 hr prior to carrageenan challenge measured after 3 hrs by analgesimetric analysis (reference value: 37.60 +/- 0.79 g); type: functional
[5] = Acute toxicity in Swiss albino mouse assessed as mortality administered ip measured for 24 hrs; type: organism-based; settings: in vivo, read-out: ALD50

SMILES	IC50 [1] [µM]	UI (Rattus norvegicus [2])	Activity (Rattus norvegicus [3]) [%]	Activity (Rattus norvegicus [4]) [g]	LD50 at 24 h [5] [mg/kg]
N#CC1=C(N)N=C2SC(=S)NN2C1c1ccc([N+](=O)[O-])cc1 (stereo not given)	> 50	–	–	–	–
N#CC1=C(N)N=C2SC(=S)NN2C1c1ccc(Br)cc1 (stereo not given)	> 50	0.05	31.3	60.51	–
Nc1nnc(S)s1	> 50	–	–	–	–
Cc1ccc(-c2cc(C(F)(F)F)nn2-c2ccc(S(N)(=O)=O)cc2)cc1 [CELECOXIB]	–	0	18.61	90.23	–
S=C1NN2C(c3ccccc3)=CC(c3ccccc3Cl)N=C2S1 (stereo not given)	> 50	–	–	–	–
N=c1cc(Nc2ccc(S(=O)(=O)Nc3ccccn3)cc2)n2[nH]c(=S)sc2n1	> 50	0.05	24.21	85.8	> 800
O=C1CSC2SC(/N=C/c3ccc(Br)cc3)=NN12 (stereo not given)	> 50	0	50.49	44.91	–
Cc1ccc(/C=N/C2=NN3C(=O)CSC3S2)cc1 (stereo not given)	> 50	–	–	–	–
Cc1ccnc(NS(=O)(=O)c2ccc(NCNc3n[nH]c(=S)s3)cc2)n1	> 50	0.05	25.31	80.78	> 800
N#CC1=C(N)N=C2SC(=S)NN2C1c1ccc(Cl)cc1 (stereo not given)	> 50	–	–	–	–
COc1ccc(/C=N/C2=NN3C(=O)CSC3S2)cc1 (stereo not given)	> 50	0.05	15.47	54.13	> 800
Cc1ccc(C2SCC(=O)N2c2n[nH]c(=S)s2)cc1 (stereo not given)	> 50	–	–	–	–
N#CC1=C(N)N=C2SC(=S)NN2C1c1ccccc1 (stereo not given)	> 50	–	–	–	–
O=C1CSC(c2ccc(Br)cc2)N1c1n[nH]c(=S)s1 (stereo not given)	1.32	0.45	25.07	51.51	> 1000
CN(C)c1ccc(C2C=C(c3ccccc3)N3NC(=S)SC3=N2)cc1 (stereo not given)	> 50	–	–	–	–
COc1ccc(C2C(C#N)=C(N)N=C3SC(=S)NN32)cc1 (stereo not given)	> 50	–	–	–	–
CN(C)c1ccc(C2C(C#N)=C(N)N=C3SC(=S)NN32)cc1 (stereo not given)	> 50	0	43.7	53.88	–
O=C1CSC(c2ccc(Cl)cc2)N1c1n[nH]c(=S)s1 (stereo not given)	> 50	–	–	–	–
S=C1NN2C(c3ccccc3)=CC(c3ccc(Cl)cc3)N=C2S1 (stereo not given)	30.7	0.6	43.1	78.51	–
N=c1cc(Nc2ccc(S(=O)(=O)Nc3nccs3)cc2)n2[nH]c(=S)sc2n1	> 50	0.05	25.13	76.51	> 1000
S=C1NN2C(c3ccccc3)=CC(c3ccc(Br)cc3)N=C2S1 (stereo not given)	> 50	–	–	–	–
O=C1CSC2SC(/N=C/c3ccc(Cl)cc3)=NN12 (stereo not given)	> 50	–	–	–	–
O=S(=O)(Nc1nccs1)c1ccc(NCNc2n[nH]c(=S)s2)cc1	> 50	0	24.6	90.21	> 1000
COc1ccc(C2C=C(c3ccccc3)N3NC(=S)SC3=N2)cc1 (stereo not given)	1.34	0.64	43.6	66.6	–

Second part, led by results:

IC50 [1] [µM]	SMILES	UI (Rattus norvegicus [2])	Activity (Rattus norvegicus [3]) [%]	Activity (Rattus norvegicus [4]) [g]	LD50 at 24 h [5] [mg/kg]
> 50	O=S(=O)(Nc1ccccn1)c1ccc(NCNc2n[nH]c(=S)s2)cc1	–	–	–	–
> 50	Cc1cc(C)nc(NS(=O)(=O)c2ccc(NCNc3n[nH]c(=S)s3)cc2)n1	–	–	–	–
> 50	NS(=O)(=O)c1ccc(NCNc2n[nH]c(=S)s2)cc1	–	–	–	–
> 50	N=c1cc(Nc2ccc(S(=O)(=O)Nc3ncccn3)cc2)n2[nH]c(=S)sc2n1	–	–	–	–
> 50	Cc1ccc(/C=N/c2n[nH]c(=S)s2)cc1	–	–	–	–
> 50	S=c1[nH]nc(/N=C/c2ccc(Br)cc2)s1	0	45.62	95.6	–
41.7	COc1ccc(/C=N/c2n[nH]c(=S)s2)cc1	0.38	41.53	56.3	–
> 50	N=c1cc(Nc2ccc(S(N)(=O)=O)cc2)n2[nH]c(=S)sc2n1	–	–	–	–
24	COc1ccc(C2SCC(=O)N2c2n[nH]c(=S)s2)cc1 (stereo not given)	0.26	31.5	62.37	–
> 50	O=S(=O)(Nc1ncccn1)c1ccc(NCNc2n[nH]c(=S)s2)cc1	–	–	–	–
> 50	S=c1[nH]nc(/N=C/c2ccc(Cl)cc2)s1	–	–	–	–
